{"source": "patent US10913983B2", "about": "“Sensitivity markers and uses for CDK7 inhibitors in breast cancers” (UNIVERSITY OF SOUTH CAROLINA, priority 2017, dated 2021)", "key": {"MCF7": {"system": "MCF7", "experiment": "Cell proliferation MTT assay", "assay_type": "cell-based", "experimental": "(§1) Cells were seeded in 12-well plates at densities ranging from 10000-30000 cells/well and after 24 hours cells were treated with 10, 40 and 100 nM THZ1 in triplicate. After 7 days the cells were imaged using Zeiss Axiovert 200 microscope using a 20× objective lens. Additionally, cells were plated in 96-well plates at a density of 2000 cells/well and after 24 hours treated with 0-10 μM THZ1. After 2 and 7 days the growth of the cells was measured by MTT assay.\n(§2) All results were presented as mean±standard deviation of 4-8 parallel assessments. Similar results were obtained from a minimum of two independent experiments. […] Densitometry was performed on duplicate immunoblots using ImageLab software (Biorad) and normalized to tubulin loading controls and then correlated with the THZ1 IC50 values of each cell line. Statistical analyses were performed using SPSS 18.0 (SPSS Inc). Bi-variant scatter graphs and Spearman rank analyses were performed to evaluate associations between protein levels, mRNA and response to inhibition. IC50 values were calculated for MTT assays using CompuSyn software."}, "JIMT-1": {"system": "JIMT-1", "experiment": "Cell proliferation MTT assay", "assay_type": "cell-based", "settings": "for pIC50: MTT", "experimental": "as §1, §2"}, "BT474": {"system": "BT474", "experiment": "Cell proliferation MTT assay", "assay_type": "cell-based", "experimental": "as §1, §2"}, "CITED2": {"system": "CITED2", "experiment": "Immunoblotting of CITED2 protein", "assay_type": "cell-based", "settings": "10-6250 nM, 4 hours, immunoblot", "experimental": "(§3) Cells were plated in 100 mm^2 petri dishes at a density of 1×10^6 cells/plate and allowed to grow for 3-4 days until the cells reached 80% confluency. Cells were treated with THZ1 or with vehicle control (DMSO) prior to lysing cells in RIPA buffer containing protease inhibitor cocktail and PMSF. Protein concentration was determined using BCA assay (Pierce). All lysates were prepared in biological duplicates. Protein (50 μg) was resolved on 4-20% Express-Plus PAGE gels in Tris-MOPS (SDS) running buffer (GenScript), transferred to PVDF membranes and incubated at 4° C. overnight with primary antibodies: CDK7 (sc-529, SantaCruz), ER (sc-543, SantaCruz), HER2 (#4290, Cell Signaling Technology), RNA-Pol II-S2P (C152000005, Diagenode), RNA-Pol II-S5P C152000007, RNA-Pol II-S7P (04-1570, Millipore) and RNA-Pol II (sc-900X, SantaCruz), CITED2 (MAB5005, R+D Systems), Tubulin (T-9026, Sigma), followed by anti-rabbit (#31460, ThermoFisher Scientific), anti-mouse (31430, ThermoFisher Scientific) or anti-rat (AP136P, Millipore) secondary antibodies. Bands were visualized with Western Lighting Plus ECL detection reagent (Perkin Elmer) using ChemiDoc Touch™ (BioRad). Images were analyzed and densitometry performed using ImageLab software (Biorad)."}, "MDA-MB-231 cells": {"system": "MDA-MB-231 cells", "experiment": "Cell cycle analysis", "assay_type": "cell-based", "settings": "MDA-MB-231, 100 and 250 nM", "experimental": "(§4) MDA-MB-231 and T47D cells were seeded into 6-well plates and allow to grow until 60% confluent. The cells were then washed with PBS and the media was replaced with serum-free media overnight. After serum starvation the cells were treated with serum containing media in the presence or absence of 100 and 250 nM THZ1 for 24 and 48 hours. The cells were collected, fixed in ethanol overnight and cell cycle distribution was measured using DAPI on the LSR2 (Beckman-Dickinson)."}, "T47D cells": {"system": "T47D cells", "experiment": "Cell cycle analysis", "assay_type": "cell-based", "settings": "100 and 250 nM, 24 or 48 hours", "experimental": "as §4"}, "breast cancer cell lines": {"system": "breast cancer cell lines", "experiment": "qPCR gene expression after THZ1", "assay_type": "cell-based", "settings": "250 nM, 6 hours", "experimental": "Cells were plated in 100 mm^2 petri dishes at a density of 1×10^6 cells/plate and allowed to grow for 3-4 days until the cells reached 80% confluency. Cells were treated with THZ1 or with vehicle control (DMSO). Total RNA was extracted using RNAeasy Mini Kit (Qiagen) and 1 μg of total RNA was used to generate cDNA using iScript cDNA synthesis kit (BioRad). Gene expression was quantified using iTaq Universal SYBR green super mix on a CFX384 Real time system (BioRad)."}, "MDA-MB-468 cells": {"system": "MDA-MB-468 cells", "settings": "fold change in gene expression, 250 nM THZ1; cited from earlier work"}, "[1]": {"system": "phosphorylation of RNA Pol II at S2, S5 and S7", "experiment": "Immunoblotting of RNA Pol II phosphorylation", "assay_type": "cell-based", "settings": "increasing concentrations (10-6250 nM), 4 hours, multiple breast cancer cell lines", "experimental": "as §3\nThe effects of increasing concentrations of THZ1 on the phosphorylation of RNA Pol II at S2, S5 and S7 was tested across multiple breast cancer cell lines. […]"}, "ZR751": {"system": "ZR751", "settings": "fold change in gene expression, THZ1; cited from earlier work"}}, "note": "pIC50: −log10 of the molar value. Read-outs that look alike come from different tables or passages of the source.", "data": [{"smiles": "CN(C)C/C=C/C(=O)Nc1ccc(C(=O)Nc2cccc(Nc3ncc(Cl)c(-c4c[nH]c5ccccc45)n3)c2)cc1", "note": "[THZ1]", "values": [{"measurement": "pIC50", "setting": "MCF7; MCF7, 2 days, read-out: 2 day IC50", "result": 7.49}, {"measurement": "pIC50", "setting": "MCF7; MCF7, 7 days, read-out: 7 day IC50", "result": 7.23}, {"measurement": "pIC50", "setting": "JIMT-1; JIMT-1, 2 days, read-out: 2 day IC50", "result": 6.54}, {"measurement": "pIC50", "setting": "JIMT-1; JIMT-1, 7 days, read-out: 7 day IC50", "result": 7.06}, {"measurement": "response to low nanomolar concentrations", "setting": "JIMT-1; JIMT-1, <100 nM, 7 days of treatment", "result": "lack of significant response"}, {"measurement": "pIC50", "setting": "BT474; BT474, 2 days, read-out: 2 day IC50", "result": 6.31}, {"measurement": "pIC50", "setting": "BT474; BT474, 7 days, read-out: 7 day IC50", "result": 7.57}, {"measurement": "protein expression of CITED2", "setting": "CITED2", "result": "significantly decreased"}, {"measurement": "cell cycle distribution", "setting": "MDA-MB-231 cells; 24 hours", "result": "G1 arrest"}, {"measurement": "cell cycle distribution", "setting": "MDA-MB-231 cells; 48 hours", "result": "increased sub-G1 (apoptotic cell) accumulation"}, {"measurement": "cell cycle distribution", "setting": "T47D cells", "result": "G1 arrest"}, {"measurement": "expression of SOX9 and STAT3", "setting": "breast cancer cell lines; MDA-MB-231 and T47D", "result": "not inhibited"}, {"measurement": "expression of CITED2, CDKN1B and PLK2", "setting": "breast cancer cell lines; majority of tested cell lines", "result": "significant decrease in expression"}, {"measurement": "expression of EGFR, MYC and FOXC1", "setting": "breast cancer cell lines; majority of the cell lines tested", "result": "significantly inhibited"}, {"measurement": "BAMBI 468 FC", "setting": "MDA-MB-468 cells", "result": "−3.8"}, {"measurement": "CDKN1B 468 FC", "setting": "MDA-MB-468 cells", "result": "−4.11"}, {"measurement": "CITED2 468 FC", "setting": "MDA-MB-468 cells", "result": "−4.53"}, {"measurement": "CYR61 468 FC", "setting": "MDA-MB-468 cells", "result": "−4.82"}, {"measurement": "DKK1 468 FC", "setting": "MDA-MB-468 cells", "result": "−4.7"}, {"measurement": "E2F8 468 FC", "setting": "MDA-MB-468 cells", "result": "−4.01"}, {"measurement": "ELF3 468 FC", "setting": "MDA-MB-468 cells", "result": "−3.88"}, {"measurement": "FADD 468 FC", "setting": "MDA-MB-468 cells", "result": "−3.93"}, {"measurement": "FBXO5 468 FC", "setting": "MDA-MB-468 cells", "result": "−4.19"}, {"measurement": "MARS2 468 FC", "setting": "MDA-MB-468 cells", "result": "−4.04"}, {"measurement": "MOCS3 468 FC", "setting": "MDA-MB-468 cells", "result": "−3.84"}, {"measurement": "MYC 468 FC", "setting": "MDA-MB-468 cells", "result": "−4.64"}, {"measurement": "NEDD9 468 FC", "setting": "MDA-MB-468 cells", "result": "−4.03"}, {"measurement": "PHLDA1 468 FC", "setting": "MDA-MB-468 cells", "result": "−3.71"}, {"measurement": "PIM3 468 FC", "setting": "MDA-MB-468 cells", "result": "−4.05"}, {"measurement": "PLK2 468 FC", "setting": "MDA-MB-468 cells", "result": "−3.99"}, {"measurement": "TRIB1 468 FC", "setting": "MDA-MB-468 cells", "result": "−3.69"}, {"measurement": "WEE1 468 FC", "setting": "MDA-MB-468 cells", "result": "−3.69"}, {"measurement": "ZNF217 468 FC", "setting": "MDA-MB-468 cells", "result": "−3.77"}, {"measurement": "ZNF627 468 FC", "setting": "MDA-MB-468 cells", "result": "−3.68"}, {"measurement": "phosphorylation of RNA Pol II at S2, S5 and S7", "setting": "[1]", "result": "inhibited the phosphorylation of all three sites in a dose dependent manner"}, {"measurement": "BAMBI ZR751 FC", "setting": "ZR751", "result": "−3.77"}, {"measurement": "CDKN1B ZR751 FC", "setting": "ZR751", "result": "−2.57"}, {"measurement": "CITED2 ZR751 FC", "setting": "ZR751", "result": "−2.64"}, {"measurement": "CYR61 ZR751 FC", "setting": "ZR751", "result": "−1.81"}, {"measurement": "DKK1 ZR751 FC", "setting": "ZR751", "result": "−4.15"}, {"measurement": "E2F8 ZR751 FC", "setting": "ZR751", "result": "−4.01"}, {"measurement": "ELF3 ZR751 FC", "setting": "ZR751", "result": "−1.65"}, {"measurement": "FADD ZR751 FC", "setting": "ZR751", "result": "−4.12"}, {"measurement": "FBXO5 ZR751 FC", "setting": "ZR751", "result": "−3.01"}, {"measurement": "MARS2 ZR751 FC", "setting": "ZR751", "result": "−3.75"}, {"measurement": "MOCS3 ZR751 FC", "setting": "ZR751", "result": "−4.1"}, {"measurement": "MYC ZR751 FC", "setting": "ZR751", "result": "−2.98"}, {"measurement": "NEDD9 ZR751 FC", "setting": "ZR751", "result": "−2.68"}, {"measurement": "PHLDA1 ZR751 FC", "setting": "ZR751", "result": "−2.55"}, {"measurement": "PIM3 ZR751 FC", "setting": "ZR751", "result": "−3.96"}, {"measurement": "PLK2 ZR751 FC", "setting": "ZR751", "result": "−3.04"}, {"measurement": "TRIB1 ZR751 FC", "setting": "ZR751", "result": "−3.54"}, {"measurement": "WEE1 ZR751 FC", "setting": "ZR751", "result": "−3.25"}, {"measurement": "ZNF217 ZR751 FC", "setting": "ZR751", "result": "−4.13"}, {"measurement": "ZNF627 ZR751 FC", "setting": "ZR751", "result": "−3.38"}]}]}
